Drawing on BindingDB's records for doi:10.1016/j.bmc.2012.08.006 (Chungnam National University, 2012), this text covers IC50 for 14 molecules.

The IC50 is the concentration needed to halve the response being measured.

The nature of the experiment: Inhibition of IL-5 in mouse Y16 cells after 48 hrs by WST1 assay.
Molecule `CCCN(CCO)Cc1coc2cccc(OCC3CCCCC3)c2c1=O` showed a half-maximal inhibitory concentration (IC50) of 15.4 µM.

Regarding `CCN(CCO)Cc1coc2cccc(OCC3CCCCC3)c2c1=O`, the IC50 amounted to 19.5 µM. This IC50 and that of the molecule before are within 1.5-fold of each other.

On to `COc1ccc(CN(CCO)Cc2coc3cccc(OCC4CCCCC4)c3c2=O)cc1`, for which the IC50 is 9 µM. This IC50 lies about 2.2-fold lower than the previous one.

For `O=c1c(CN(CCO)Cc2ccc(O)cc2)coc2cccc(OCC3CCCCC3)c12`, the concentration for half-maximal inhibition (IC50) was 9.1 µM.

Consider `Cc1ccc(CN(CCO)Cc2coc3cccc(OCC4CCCCC4)c3c2=O)cc1`, for which half-maximal inhibition (IC50) required 9.4 µM. The IC50 values of the last two molecules are within 1.5-fold of each other.

`O=c1c(CN(CCO)Cc2ccccc2)coc2cccc(OCC3CCCCC3)c12`: the IC50 is 16.1 µM. This IC50 lies about 1.7-fold higher than the previous one.

Turning to `O=c1c(CN(CCO)CC2CCCCC2)coc2cccc(OCC3CCCCC3)c12`, it took 12.4 µM to reach half-maximal inhibition (IC50). The IC50 values of the last two molecules are within 1.5-fold of each other.

With `O=c1c(CN(CCO)Cc2ccncc2)coc2cccc(OCC3CCCCC3)c12`, the half-maximal inhibitory concentration (IC50) was 14.2 µM.

In the case of `O=c1c(CN(CCO)Cc2ccc(Cl)cc2)coc2cccc(OCC3CCCCC3)c12`, the IC50 amounted to 10.3 µM.

Molecule `CC(C)N(CCO)Cc1coc2cccc(OCC3CCCCC3)c2c1=O` showed an IC50 of 10.2 µM.

On to `CCCCN(CCO)Cc1coc2cccc(OCC3CCCCC3)c2c1=O`, for which half-maximal inhibition (IC50) was put at 9.2 µM. This IC50 and that of the molecule before are within 1.5-fold of each other.

Take `O=c1c(CN(CCO)c2ccccc2)coc2cccc(OCC3CCCCC3)c12`: the IC50 stood at 14.3 µM.

In the case of `O=c1c(CN(CCO)C2CCCCC2)coc2cccc(OCC3CCCCC3)c12`, the IC50 is 9 µM.

The molecule `CN(CCO)Cc1coc2cccc(OCC3CCCCC3)c2c1=O` showed an IC50 of 30.3 µM.
